From patent publication US8084605B2, “Polymorphs of succinate salt of 2-[6-(3-amino-piperidin-1-yl)-3-methyl-2,4-dioxo-3,4-dihydro-2H-pyrimidin-1-ylmethy]-4-fluor-benzonitrile and methods of use therefor” (priority 2006, dated 2011)

Legend:
Type in all cases: physicochemical
[1] = Moisture sorption/desorption analysis
Procedure: Moisture sorption/desorption data were collected on a VTI SGA-100 Vapor Sorption Analyzer. Sorption and desorption data were collected over a range of 5% to 95% relative humidity (RH) at 10% RH intervals under a nitrogen purge. Samples were not dried prior to analysis. Equilibrium criteria used for analysis were less than 0.0100% weight change in 5 minutes, with a maximum equilibration time of 3 hours if the weight criterion was not met. Data were not corrected for the initial moisture content of the samples. NaCl and PVP were used as calibration standards. Moisture sorption and desorption study was conducted on a sample of Form A+B. The sample was prepared by crashed cooling crystallization (Example 3, section A.6) of the polymorphic forms from a ethanol:water (95:5) solution of Compound I. The moisture sorption and desorption study was conducted according to the procedures outlined in Example 3, section B. 10. The data collected is plotted in FIG. 13 and summarized in Table L. Moisture sorption and desorption study was conducted on a sample of Form E. The sample was prepared by solvent/antisolvent crystallization (Example 3, section A.7) by the addition of acetonitrile to Compound I in water. The moisture sorption and desorption study was conducted according to the procedures outlined in Example 3, section B. 10. The data collected is plotted in FIG. 23 and summarized in Table M. Moisture sorption and desorption study was conducted on a sample of Amorphous Form. The sample was prepared by lyophilolization of a solution of Compound I in water (Example 3, section A.9). The moisture sorption and desorption study was conducted according to the procedures outlined in Example 3, section B. 10.

[2] = Approximate solubility of Compound I in different solvents; conditions: most solvents, with the exceptions of DMF, methanol, TFE, water and water:solvent mixtures
Procedure: Compound I prepared by the method described in Example 1 was used for the solubility study. Solvents and other reagents were of ACS or HPLC grade and were used as received.
A weighed sample (typically about 20-25 mg) of Compound I was treated at ambient temperature with aliquots (typically ≧50 μL) of the test solvent with sonication between additions. Solvents were either reagent or HPLC grade. Solubility was estimated from the total volume of solvent used to obtain a clear solution, as determined by visual inspection. Solubility is expressed as “less than” when dissolution was not observed. If dissolution occurred after the last aliquot was added then solubility is expressed as “greater than or equal to” (≧). The actual solubilities may be greater than determined, due to over addition of solvent (large aliquots) or slow dissolution rates. Approximate solubilities of Compound I are summarized in Table A. The solubility values have been rounded to the nearest whole number and are reported to the nearest mg/mL.

[3] = Relative humidity stressing experiments (form by XRPD); conditions: for Form by XRPD after relative humidity stressing: 29 days
Description: Samples of Compound I were placed uncovered in approximately 58%, 88%, and 97% relative humidity jars. The samples were stored in the jars for approximately 8 days. The solids were collected and analyzed by XRPD for form identification. Aliquots of Form A of Compound I were stored under approximately 50% and 97% relative humidity for 29 days. An aliquot of a mixture of Form A+B was stressed at 88% relative humidity for 23 days. Amorphous Form was stressed at 58% and 88% relative humidity for 23 days.

## Cn1c(=O)cc(N2CCC[C@@H](N)C2)n(Cc2ccccc2C#N)c1=O.O=C(O)CCC(=O)O [Amorphous Form]
[1]; at 75% relative humidity
  Weight lost during sorption: Approximately 7%

## Cn1c(=O)cc(N2CCC[C@@H](N)C2)n(Cc2cc(F)ccc2C#N)c1=O [Compound I, 2-[6-(3-amino-piperidin-1-yl)-3-methyl-2,4-dioxo-3,4-dihydro-2H-pyrimidin-1-ylmethyl]-4-fluoro-benzonitrile succinate]
[2]
  Solubility (in words): Poor solubility
[1]; lyophilized sample from H2O solution
  XRPD Form post MB: low crystallinity A
[1]; sample crystallized from H2O/ACN
  XRPD Form post MB: A + small quantity of E
[1]; sample prepared by CC from EtOH:H2O (95:5)
  XRPD Form post MB: A + B

## Cn1c(=O)cc(N2CCC[C@@H](N)C2)n(Cc2cc(F)ccc2C#N)c1=O.O=C(O)CCC(=O)O [Form A]
[3]; ambient conditions
  Stability (conclusion from characterization data): stable at ambient conditions
[3]; approximately 50% and 97% relative humidity
  Form by XRPD after relative humidity stressing: Form A
[3]; approximately 58% and 97% relative humidity
  Form by XRPD after relative humidity stressing: did not exhibit form changes
